Values quoted from earlier work, collected in US20050101577A1, “2-alkylidene-19-nor-vitamin D derivatives for the treatment of rickets or vitamin D deficiency” (Pfizer Inc., priority 2003, published 2005).

Test system: intestinal calcium transport
Settings: 260 pmol/day, only dose tested

For `C=C1/C(=C\C=C2/CCC[C@]3(C)[C@@H]([C@H](C)CCCC(C)(C)O)CC[C@@H]23)C[C@@H](O)C[C@@H]1O` [1,25-(OH)2D3, 1,25-dihydroxyvitamin D3], the “intestinal calcium transport (in words)” value is given as “expected elevation of intestinal calcium transport”.
